Data: ChEMBL document CHEMBL1201862, “PubChem BioAssay data set” (2004)
The source made the active and inactive calls. Rule as the data show it, for most assays here: actives have a measured EC50 and inactives only a lower limit.

Assays:
[1] = fluconazole-exposed Candida albicans growth modulators – fluorescence, retest, confirmation (AID 2467); assay type: functional, cell-based
[2] = NIH-3T3 fibroblast cytotoxicity, dose response, cytotoxicity control, cell-based, fluorescence, Alamar Blue, secondary assay (AID 2327); assay type: functional;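 also: NIH-3T3 mouse fibroblasts cultured with fluconazole at 8 µg/mL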
[3] = molecular target: T1, Replicative DNA helicase DnaB (Mycobacterium tuberculosis, UniProt P9WMR3); assay: DnaB intein splicing inhibitors, dose response, biochemical, cell-free fluorescence (AID 449749); assay type: functional
T1 sequence (P9WMR3 whole entry): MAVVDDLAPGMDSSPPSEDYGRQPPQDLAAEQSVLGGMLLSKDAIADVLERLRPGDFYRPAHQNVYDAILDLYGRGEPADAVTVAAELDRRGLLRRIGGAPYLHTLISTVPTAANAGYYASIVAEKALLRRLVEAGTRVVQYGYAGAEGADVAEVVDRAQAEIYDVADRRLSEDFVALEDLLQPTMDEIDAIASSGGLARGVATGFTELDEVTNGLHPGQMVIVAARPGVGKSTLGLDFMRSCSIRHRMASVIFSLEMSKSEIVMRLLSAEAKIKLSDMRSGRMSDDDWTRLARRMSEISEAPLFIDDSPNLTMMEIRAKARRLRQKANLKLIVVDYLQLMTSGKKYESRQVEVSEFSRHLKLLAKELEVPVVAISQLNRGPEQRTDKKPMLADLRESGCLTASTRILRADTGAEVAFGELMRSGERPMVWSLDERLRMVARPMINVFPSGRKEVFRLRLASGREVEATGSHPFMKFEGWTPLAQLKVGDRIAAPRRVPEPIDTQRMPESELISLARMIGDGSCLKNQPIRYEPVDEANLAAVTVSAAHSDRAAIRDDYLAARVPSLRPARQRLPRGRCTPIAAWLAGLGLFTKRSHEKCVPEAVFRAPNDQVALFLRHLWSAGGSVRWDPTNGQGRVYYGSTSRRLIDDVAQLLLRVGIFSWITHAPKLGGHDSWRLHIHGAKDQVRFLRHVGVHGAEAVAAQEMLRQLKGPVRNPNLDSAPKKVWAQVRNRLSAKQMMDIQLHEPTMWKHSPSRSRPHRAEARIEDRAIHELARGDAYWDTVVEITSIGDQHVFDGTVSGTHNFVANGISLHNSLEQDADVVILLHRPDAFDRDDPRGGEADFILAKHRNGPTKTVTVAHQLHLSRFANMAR

[4] = molecular target: T2, Apoptotic protease-activating factor 1 (Homo sapiens, UniProt O14727); assay type: functional
T2 sequence (O14727 whole entry): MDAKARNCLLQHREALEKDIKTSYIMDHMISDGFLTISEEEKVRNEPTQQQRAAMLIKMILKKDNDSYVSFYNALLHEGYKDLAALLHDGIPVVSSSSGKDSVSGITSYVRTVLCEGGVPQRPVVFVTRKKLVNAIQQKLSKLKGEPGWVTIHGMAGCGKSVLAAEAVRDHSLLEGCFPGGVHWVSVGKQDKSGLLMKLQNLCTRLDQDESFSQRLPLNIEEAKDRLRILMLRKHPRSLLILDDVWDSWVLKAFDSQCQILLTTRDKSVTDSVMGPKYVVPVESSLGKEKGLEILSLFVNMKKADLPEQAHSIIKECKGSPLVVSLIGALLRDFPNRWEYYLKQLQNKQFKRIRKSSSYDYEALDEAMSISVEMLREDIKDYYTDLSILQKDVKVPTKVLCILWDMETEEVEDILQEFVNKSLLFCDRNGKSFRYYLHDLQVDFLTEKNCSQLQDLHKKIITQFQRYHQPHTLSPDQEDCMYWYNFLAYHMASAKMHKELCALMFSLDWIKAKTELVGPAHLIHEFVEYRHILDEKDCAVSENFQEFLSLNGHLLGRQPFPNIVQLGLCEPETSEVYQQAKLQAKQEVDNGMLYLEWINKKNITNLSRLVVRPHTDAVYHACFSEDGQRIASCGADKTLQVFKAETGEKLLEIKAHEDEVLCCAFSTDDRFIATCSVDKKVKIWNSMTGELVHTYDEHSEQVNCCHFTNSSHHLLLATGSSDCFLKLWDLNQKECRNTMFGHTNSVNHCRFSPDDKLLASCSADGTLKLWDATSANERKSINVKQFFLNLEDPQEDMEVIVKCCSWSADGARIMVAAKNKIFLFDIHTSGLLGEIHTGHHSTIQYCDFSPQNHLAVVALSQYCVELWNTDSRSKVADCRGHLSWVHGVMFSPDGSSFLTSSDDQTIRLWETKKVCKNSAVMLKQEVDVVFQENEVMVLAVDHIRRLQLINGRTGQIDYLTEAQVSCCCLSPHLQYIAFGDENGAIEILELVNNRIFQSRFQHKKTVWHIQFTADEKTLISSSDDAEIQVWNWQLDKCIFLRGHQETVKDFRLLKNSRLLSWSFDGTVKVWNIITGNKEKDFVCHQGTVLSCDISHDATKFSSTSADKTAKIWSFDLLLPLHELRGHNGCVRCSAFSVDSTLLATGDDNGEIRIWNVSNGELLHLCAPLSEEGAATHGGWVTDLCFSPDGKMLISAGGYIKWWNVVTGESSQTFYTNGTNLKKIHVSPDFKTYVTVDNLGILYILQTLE

Protein RecA = molecular target: T3, Protein RecA (Mycobacterium tuberculosis, UniProt P9WHJ3); assay: Fluorescence Cell-Free Homogeneous Dose Retest to Identify Inhibitors of RecA-Intein Splicing Activity. [Related pubchem assays (depositor defined):AID2097, AID2223, AID489010, AID492950]; assay type: functional
T3 sequence (P9WHJ3 whole entry): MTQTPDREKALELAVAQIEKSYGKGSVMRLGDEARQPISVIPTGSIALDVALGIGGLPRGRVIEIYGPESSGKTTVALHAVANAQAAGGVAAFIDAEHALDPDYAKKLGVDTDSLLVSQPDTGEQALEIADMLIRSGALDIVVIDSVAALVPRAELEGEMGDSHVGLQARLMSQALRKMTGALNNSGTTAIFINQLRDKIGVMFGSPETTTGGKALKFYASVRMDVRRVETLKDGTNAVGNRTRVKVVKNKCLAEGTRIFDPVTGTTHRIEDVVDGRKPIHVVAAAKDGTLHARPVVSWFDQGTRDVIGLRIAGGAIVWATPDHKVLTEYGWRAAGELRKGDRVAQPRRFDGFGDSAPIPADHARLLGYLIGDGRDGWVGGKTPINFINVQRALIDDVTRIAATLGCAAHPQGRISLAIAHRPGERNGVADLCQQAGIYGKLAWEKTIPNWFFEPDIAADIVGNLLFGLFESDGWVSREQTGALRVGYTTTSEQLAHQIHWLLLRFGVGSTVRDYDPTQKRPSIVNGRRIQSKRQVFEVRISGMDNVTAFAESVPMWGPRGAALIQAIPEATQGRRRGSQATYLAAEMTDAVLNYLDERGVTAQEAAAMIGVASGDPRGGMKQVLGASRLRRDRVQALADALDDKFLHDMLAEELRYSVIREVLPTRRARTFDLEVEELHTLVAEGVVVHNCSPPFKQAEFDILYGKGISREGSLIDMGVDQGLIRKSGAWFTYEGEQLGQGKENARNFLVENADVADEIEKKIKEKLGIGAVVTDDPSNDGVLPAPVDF

With `CCCCC(=O)NC(c1ccccc1)c1ccc2cccnc2c1O` (stereo not given) the EC50 [1] was 0.569 µM (active) and the EC50 [2] was 19.9 µM (inconclusive).
In the case of `CC(=O)N(Cc1ccc(F)cc1)C1=C(NCCc2ccccc2)C(=O)c2ccccc2C1=O`, the EC50 [1] is reported as 0.785 µM (active), the AC50 [3] is reported as 4.93 µM (active) and the IC50 [4] is reported as 7.39 µM (active). The EC50 (Protein RecA) was 1.42 µM (active) and the EC50 [2] was 9.84 µM (inconclusive).
With `O=C(N/N=C1\C/C(=N\NC(=O)c2ccncc2)c2ccccc21)c1ccncc1` the AC50 [3] was 6.09 µM (active), the IC50 [4] was 12.8 µM (active) and the EC50 (Protein RecA) was 0.732 µM (active).
With `COc1ccc(-n2c3nc4ccccc4nc3c3c(=N)oc(C)nc32)cc1` the AC50 [3] was > 120 µM (inactive), the IC50 [4] was 19.1 µM (active) and the EC50 (Protein RecA) was > 380 µM (inactive).
For `O=C(/C=C/c1cccs1)NC(=S)NNC(=O)c1ccccc1O`, the EC50 [1] was > 38 µM (not active) and the EC50 [2] was 35.5 µM (active).
